Measured values reported in ChEMBL document CHEMBL1201862, “PubChem BioAssay data set” (2004).
Calls of active or inactive are those of the source.

Experiments:
[1] = Luminescence Cell-Based Dose Retest to Confirm Inhibitors of Cancer Stem Cells. [Related pubchem assays (depositor defined):AID2717, AID2721]; format: functional; conditions: Homo sapiens
[2] = decrease of insulin promoter-GFP reporter – imaging, high-content screening, mouse beta cells (AID 1628); format: functional; conditions: MIN6
[3] = MIN6 cell viability loss – mouse insulinoma, cytotoxicity control, dose response (AID 2122); format: functional;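 also: confirmatory high-throughput counterscreen run to flag cytotoxic compounds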
[4] = NIH3T3 cell viability loss – ATP luminescence, mouse fibroblasts, counter-screen, dose response (AID 2010); format: functional, cell-based;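 also: cells exposed to compound for about 90 hours before reading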
[5] = Trypanosoma cruzi growth suppression in host cells – NIH3T3 host cells, beta-gal luminescence, confirmation (AID 2044); format: functional, cell-based;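 also: intracellular parasites grown in NIH/3T3 mouse fibroblasts as host cells; luminescent beta-galactosidase reporter signal from transgenic T. cruzi replicating inside host cells; inhibitors lower the luminescence signal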
[6] = viability loss of HMLE_sh_eGFP cells – cell-based, luminescence, counter-screen for HMLE_sh_ECad selective toxicity project, dose response (AID 463074); format: functional, Homo sapiens;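 also: HMLE human mammary epithelial cells expressing control shRNA against eGFP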
A-375 = assay: MITF: Counter assay: A375 proliferation Measured in Cell-Based System Using Plate Reader - 2084-03_Inhibitor_Dose_DryPowder_Activity. [Related pubchem assays (depositor defined):AID488944]; format: functional; conditions: Homo sapiens
cells [7] = format: functional
[8] = THP-1 cell cytotoxicity, dose response, cytotoxicity control for non-replicating M. tuberculosis project (AID 489025); format: functional
cells [9] = assay: cells
[10] = T. cruzi infection blockers in NIH3T3 cells – beta-gal luminescence, NIH3T3 host cells, confirmation (AID 2630); format: functional, cell-based; conditions: Mus musculus
[11] = NIH/3T3 cell viability loss – mouse embryonic fibroblasts, dry powder, set 2, cytotoxicity control, dose response (AID 493247); format: functional, cell-based; conditions: Fibroblast
[12] = HepG2 cell cytotoxicity, dose response, cytotoxicity control for non-replicating M. tuberculosis project (AID 489018); format: functional; conditions: Mycobacterium tuberculosis
Trypanosoma cruzi = assay: anti-trypanosomal activity in host cells – cell-based, plate reader, dry powder, set 3, dose response (AID 493197); format: functional
[13] = target: T1, Microphthalmia-associated transcription factor (Homo sapiens, UniProt O75030); assay: reducers of TRPM1 reporter luminescence, concentration series – cell-based, SK-MEL-5, cherry-picked, set 3, MITF inhibitor project, dose response (AID 493073); format: functional;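 also: SK-MEL-5 melanoma cells with luciferase driven by the MITF target TRPM1 promoter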
T1 sequence (O75030 whole entry): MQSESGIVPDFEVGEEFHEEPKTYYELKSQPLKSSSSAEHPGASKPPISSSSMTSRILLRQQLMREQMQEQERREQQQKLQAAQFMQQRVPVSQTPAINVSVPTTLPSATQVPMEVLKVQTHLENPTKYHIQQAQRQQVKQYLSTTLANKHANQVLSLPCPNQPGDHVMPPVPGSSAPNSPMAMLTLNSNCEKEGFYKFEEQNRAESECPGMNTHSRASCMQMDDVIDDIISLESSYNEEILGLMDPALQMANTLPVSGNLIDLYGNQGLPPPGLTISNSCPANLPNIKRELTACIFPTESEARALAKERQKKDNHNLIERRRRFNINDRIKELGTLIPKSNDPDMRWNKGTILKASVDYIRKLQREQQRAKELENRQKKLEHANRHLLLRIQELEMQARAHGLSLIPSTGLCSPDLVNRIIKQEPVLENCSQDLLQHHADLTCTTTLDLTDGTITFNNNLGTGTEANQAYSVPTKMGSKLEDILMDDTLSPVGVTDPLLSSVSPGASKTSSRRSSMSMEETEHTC

[14] = Vero E6 cell cytotoxicity, dose response, cytotoxicity control for non-replicating M. tuberculosis project, secondary assay (AID 492998); format: functional, VeroE6; conditions: Vero C1008
Escherichia coli = assay: microbe, parasite or virus in culture
HEK293 [15] = assay: cells; conditions: Homo sapiens
HEK293 [16] = assay: cells; conditions: Homo sapiens; remark: listed apart in the source
[17] = target: T2, Apoptotic protease-activating factor 1 (Homo sapiens, UniProt O14727); assay: activation of Apaf-1 mediated apoptosis – fluorescent, uHTS hits, dose response (AID 588554); format: functional
T2 sequence (O14727 whole entry): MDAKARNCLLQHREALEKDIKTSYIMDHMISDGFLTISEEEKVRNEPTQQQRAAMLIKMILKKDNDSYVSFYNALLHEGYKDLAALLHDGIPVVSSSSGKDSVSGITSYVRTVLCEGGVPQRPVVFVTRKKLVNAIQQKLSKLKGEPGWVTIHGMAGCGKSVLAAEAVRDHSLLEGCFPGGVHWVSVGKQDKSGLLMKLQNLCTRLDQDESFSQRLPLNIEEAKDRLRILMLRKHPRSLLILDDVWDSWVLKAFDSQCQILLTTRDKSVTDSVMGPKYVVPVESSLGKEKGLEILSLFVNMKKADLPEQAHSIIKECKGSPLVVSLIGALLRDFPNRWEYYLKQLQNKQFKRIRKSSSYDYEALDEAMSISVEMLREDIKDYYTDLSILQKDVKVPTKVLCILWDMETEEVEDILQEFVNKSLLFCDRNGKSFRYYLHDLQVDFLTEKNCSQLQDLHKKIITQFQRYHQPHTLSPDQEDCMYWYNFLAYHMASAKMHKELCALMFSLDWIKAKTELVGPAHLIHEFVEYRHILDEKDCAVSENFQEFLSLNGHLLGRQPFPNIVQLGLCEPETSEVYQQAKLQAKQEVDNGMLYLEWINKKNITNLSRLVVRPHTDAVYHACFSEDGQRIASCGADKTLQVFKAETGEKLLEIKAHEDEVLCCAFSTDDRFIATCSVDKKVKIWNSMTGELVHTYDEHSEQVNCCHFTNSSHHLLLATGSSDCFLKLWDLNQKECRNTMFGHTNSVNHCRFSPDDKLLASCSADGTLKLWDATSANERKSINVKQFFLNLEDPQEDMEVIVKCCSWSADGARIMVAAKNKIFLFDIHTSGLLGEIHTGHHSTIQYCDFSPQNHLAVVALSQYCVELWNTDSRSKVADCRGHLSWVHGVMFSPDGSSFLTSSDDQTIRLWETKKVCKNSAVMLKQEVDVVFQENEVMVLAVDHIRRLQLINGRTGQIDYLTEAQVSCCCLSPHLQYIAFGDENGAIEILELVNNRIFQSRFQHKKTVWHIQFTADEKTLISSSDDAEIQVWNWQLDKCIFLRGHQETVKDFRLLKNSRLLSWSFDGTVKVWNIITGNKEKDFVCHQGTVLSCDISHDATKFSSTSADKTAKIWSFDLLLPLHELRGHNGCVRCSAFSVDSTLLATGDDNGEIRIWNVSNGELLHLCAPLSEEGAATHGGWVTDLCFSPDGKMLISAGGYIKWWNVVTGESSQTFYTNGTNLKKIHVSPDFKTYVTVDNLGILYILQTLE

[18] = CCR5-tropic HIV-1 fusion blockers – cell-based, CCR5-tropic Env, dose response (AID 2279); format: functional
[19] = target: Dual specificity tyrosine-phosphorylation-regulated kinase 1A (Rattus norvegicus, UniProt Q63470); format: biochemical, Homo sapiens
[20] = target: T3, Ubiquitin-conjugating enzyme E2 N (Homo sapiens, UniProt P61088); format: functional;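 also: Dose-response confirmation in a TR-FRET assay detecting UBC13-driven polyubiquitin chain formation, inhibition measured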
T3 sequence (P61088 whole entry): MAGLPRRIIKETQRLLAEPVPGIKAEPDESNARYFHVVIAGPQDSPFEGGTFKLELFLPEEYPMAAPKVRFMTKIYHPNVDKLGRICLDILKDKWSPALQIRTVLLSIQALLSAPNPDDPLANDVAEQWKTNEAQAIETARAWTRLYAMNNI

[21] = non-specific 3'UTR reporter inhibition in Clone20-Shn3RL – cell-based, Renilla luciferase, cherry-picked, counter-screen for Shn3 inhibitor project, dose response (AID 624133); format: functional
[22] = loss of viability in HepG2 cells – cell-based, CellTiter-Glo, cherry-picked, cytotoxicity control for Shn3 inhibitor project, dose response (AID 624134); format: functional
[23] = reduction of Shn3 3'UTR-driven luciferase in osteoblasts – cell-based, Clone20 osteoblasts, firefly luciferase, cherry-picked, dose response (AID 624132); format: functional;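 also: firefly luciferase luminescence from reporter carrying the Shn3 3'UTR in osteoblasts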
[24] = NIH-3T3 fibroblast cytotoxicity, dose response, cytotoxicity control, cell-based, fluorescence, Alamar Blue, secondary assay (AID 2327); format: functional;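 also: NIH-3T3 mouse fibroblasts cultured with fluconazole at 8 µg/mL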
[25] = fluconazole-exposed Candida albicans growth modulators – fluorescence, retest, confirmation (AID 2467); format: functional, cell-based
[26] = target: ATP-dependent molecular chaperone HSP82 (Candida albicans (strain WO-1) (Yeast), UniProt C4YTQ8); assay: steroid-induced GRE reporter decrease in yeast – S. cerevisiae, luminescence, Hsp90 inhibitor project, dose response (AID 2400); format: functional, cell-based;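 also: beta-galactosidase luminescence from glucocorticoid response element reporter as proxy for Hsp90 function; inhibitor potency where signal loss means Hsp90 inhibition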
[27] = target: G-protein coupled receptor 55 (Homo sapiens, UniProt Q9Y2T6); assay: inhibition of LPI-stimulated GPR55 beta-arrestin translocation – imaging, U2OS, beta-arrestin-GFP, LPI agonist, primary screen (AID 2013); format: functional;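 also: antagonist potency measured as reduced agonist-driven arrestin aggregation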
[28] = target: Serine/threonine-protein phosphatase (Candida dubliniensis (strain CD36 / CBS 7987 / NCPF 3949 / NRRLY-17841) (Yeast), UniProt B9W6M3); assay: blockers of CaCl2-induced CDRE-lacZ signaling – S. cerevisiae, luminescence, secondary, dose response (AID 2388); format: functional, cell-based;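 also: yeast reporter cells carrying a calcineurin-responsive lacZ construct stimulated with calcium chloride; luminescent beta-galactosidase reporter signal in whole cells rather than isolated phosphatase activity; potency for inhibition where a drop in reporter signal means calcineurin blockade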
[29] = target: T4, Dual specificity protein phosphatase 6 (Rattus norvegicus, UniProt Q64346)
[30] = target: T5, Tyrosine-protein phosphatase non-receptor type 7 (Homo sapiens, UniProt P35236); format: functional
T5 sequence (P35236 whole entry): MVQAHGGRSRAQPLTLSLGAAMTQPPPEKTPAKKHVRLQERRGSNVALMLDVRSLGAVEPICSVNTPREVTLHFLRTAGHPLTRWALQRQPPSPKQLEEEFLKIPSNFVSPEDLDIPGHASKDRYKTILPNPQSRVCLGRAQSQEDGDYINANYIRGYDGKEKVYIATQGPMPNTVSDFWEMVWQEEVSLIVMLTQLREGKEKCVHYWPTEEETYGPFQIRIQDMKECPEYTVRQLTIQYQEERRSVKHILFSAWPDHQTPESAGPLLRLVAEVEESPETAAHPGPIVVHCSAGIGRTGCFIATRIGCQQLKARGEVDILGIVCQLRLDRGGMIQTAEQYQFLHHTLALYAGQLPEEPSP

[31] = target: T4, Dual specificity protein phosphatase 6; format: functional
[32] = target: Glyceraldehyde-3-phosphate dehydrogenase (Homo sapiens, UniProt P04406)
Keap1/Nrf2 = Keap1/Nrf2 (Homo sapiens, UniProt Q14145); assay: disruptors of Keap1 binding to Nrf2 peptide – biochemical, fluorescence polarization, cherry-picked samples, dose response (AID 588683)
ORF 73 = ORF 73 (Human herpesvirus 8, UniProt O40947); assay: KSHV LANA DNA-binding disruption – biochemical, fluorescence polarization, cherry-picked samples, dose response (AID 504725); set-up: species or system Human gammaherpesvirus 8;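 also: fluorescence polarization of a labeled DNA duplex reporting LANA DNA binding; potency is for inhibitors that block LANA binding to the DNA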
[33] = target: Luciferin 4-monooxygenase (Photuris pensylvanica, UniProt Q27757); assay: inhibition of Cell Titer Glo luciferase signal – biochemical, luminescence, cherry-picks, counter-screen for HSF-1 reporter inhibitor project, dose response (AID 588847)
[34] = target: T6, Calpain-2 catalytic subunit (Sus scrofa, UniProt P43367); assay: m-calpain protease blockers, concentration series – biochemical, fluorogenic peptide substrate, dose response (AID 1420); format: functional
T6 sequence (P43367 whole entry): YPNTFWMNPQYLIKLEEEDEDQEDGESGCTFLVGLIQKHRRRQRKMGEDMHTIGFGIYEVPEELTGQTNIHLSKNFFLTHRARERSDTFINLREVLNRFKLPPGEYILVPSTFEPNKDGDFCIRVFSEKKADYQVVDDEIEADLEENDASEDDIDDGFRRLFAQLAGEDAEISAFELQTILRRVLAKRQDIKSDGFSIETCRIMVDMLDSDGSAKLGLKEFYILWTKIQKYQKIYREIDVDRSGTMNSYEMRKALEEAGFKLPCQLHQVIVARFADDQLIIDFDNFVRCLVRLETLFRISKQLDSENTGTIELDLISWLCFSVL

T4 sequence (Q64346 whole entry): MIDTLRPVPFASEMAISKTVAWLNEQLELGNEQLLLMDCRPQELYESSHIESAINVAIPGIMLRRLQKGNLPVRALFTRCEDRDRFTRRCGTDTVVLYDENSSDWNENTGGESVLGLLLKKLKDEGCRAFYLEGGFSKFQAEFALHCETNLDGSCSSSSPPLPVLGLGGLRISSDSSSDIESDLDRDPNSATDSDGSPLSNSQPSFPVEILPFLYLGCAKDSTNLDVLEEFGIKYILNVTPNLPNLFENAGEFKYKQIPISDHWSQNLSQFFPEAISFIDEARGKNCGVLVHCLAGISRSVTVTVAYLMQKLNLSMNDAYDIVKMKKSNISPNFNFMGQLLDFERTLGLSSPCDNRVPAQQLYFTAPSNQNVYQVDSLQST
Chain of Luciferin 4-monooxygenase (Q27757 whole entry): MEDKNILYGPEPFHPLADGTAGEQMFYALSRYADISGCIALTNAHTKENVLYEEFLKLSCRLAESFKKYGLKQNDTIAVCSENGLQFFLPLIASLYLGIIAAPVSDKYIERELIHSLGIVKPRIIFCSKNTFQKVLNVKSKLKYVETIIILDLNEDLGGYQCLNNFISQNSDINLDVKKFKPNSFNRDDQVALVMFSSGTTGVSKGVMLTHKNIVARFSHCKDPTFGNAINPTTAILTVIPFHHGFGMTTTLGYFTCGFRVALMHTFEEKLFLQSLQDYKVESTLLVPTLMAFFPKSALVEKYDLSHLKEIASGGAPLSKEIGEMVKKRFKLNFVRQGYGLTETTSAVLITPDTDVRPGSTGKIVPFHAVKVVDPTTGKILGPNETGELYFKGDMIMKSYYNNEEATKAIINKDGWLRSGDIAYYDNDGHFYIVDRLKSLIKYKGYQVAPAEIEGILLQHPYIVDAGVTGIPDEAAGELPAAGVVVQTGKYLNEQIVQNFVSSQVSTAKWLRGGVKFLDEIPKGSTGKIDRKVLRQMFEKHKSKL
Chain of ATP-dependent molecular chaperone HSP82 (C4YTQ8 whole entry): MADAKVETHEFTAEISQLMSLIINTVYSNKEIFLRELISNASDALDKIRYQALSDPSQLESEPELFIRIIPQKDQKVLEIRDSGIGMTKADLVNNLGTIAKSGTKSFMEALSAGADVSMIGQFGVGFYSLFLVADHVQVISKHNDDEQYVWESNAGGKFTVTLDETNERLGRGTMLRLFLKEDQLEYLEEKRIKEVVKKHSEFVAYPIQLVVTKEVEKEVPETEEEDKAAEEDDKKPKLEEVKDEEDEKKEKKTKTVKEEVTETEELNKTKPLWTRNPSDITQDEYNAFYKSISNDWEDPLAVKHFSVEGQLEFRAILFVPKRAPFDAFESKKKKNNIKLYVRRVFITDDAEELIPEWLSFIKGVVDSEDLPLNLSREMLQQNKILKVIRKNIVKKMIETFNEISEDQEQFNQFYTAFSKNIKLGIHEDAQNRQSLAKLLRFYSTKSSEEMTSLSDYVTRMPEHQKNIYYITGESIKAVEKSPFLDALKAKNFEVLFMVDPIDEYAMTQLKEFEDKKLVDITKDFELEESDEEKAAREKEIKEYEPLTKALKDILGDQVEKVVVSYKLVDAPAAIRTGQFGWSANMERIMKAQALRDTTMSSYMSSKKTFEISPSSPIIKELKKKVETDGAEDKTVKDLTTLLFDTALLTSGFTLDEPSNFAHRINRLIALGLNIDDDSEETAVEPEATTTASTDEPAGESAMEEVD
Chain of Keap1/Nrf2 (Q16236 whole entry): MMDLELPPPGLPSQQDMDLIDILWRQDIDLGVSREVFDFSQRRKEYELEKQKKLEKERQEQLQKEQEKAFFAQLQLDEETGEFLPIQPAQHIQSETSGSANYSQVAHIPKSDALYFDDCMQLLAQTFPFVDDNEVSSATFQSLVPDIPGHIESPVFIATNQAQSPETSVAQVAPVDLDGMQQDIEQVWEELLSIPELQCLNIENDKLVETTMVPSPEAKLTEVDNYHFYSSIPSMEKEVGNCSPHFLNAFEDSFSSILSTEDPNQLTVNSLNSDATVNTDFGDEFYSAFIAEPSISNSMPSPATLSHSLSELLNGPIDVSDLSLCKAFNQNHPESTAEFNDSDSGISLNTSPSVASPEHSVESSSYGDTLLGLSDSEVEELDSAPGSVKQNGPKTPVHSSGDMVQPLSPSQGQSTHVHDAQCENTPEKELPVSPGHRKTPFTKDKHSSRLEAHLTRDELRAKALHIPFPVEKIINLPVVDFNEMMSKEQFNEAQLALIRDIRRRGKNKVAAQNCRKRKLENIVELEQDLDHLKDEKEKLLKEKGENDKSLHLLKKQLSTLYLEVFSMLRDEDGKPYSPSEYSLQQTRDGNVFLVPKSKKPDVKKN
Chain of Keap1/Nrf2 (Q14145 whole entry): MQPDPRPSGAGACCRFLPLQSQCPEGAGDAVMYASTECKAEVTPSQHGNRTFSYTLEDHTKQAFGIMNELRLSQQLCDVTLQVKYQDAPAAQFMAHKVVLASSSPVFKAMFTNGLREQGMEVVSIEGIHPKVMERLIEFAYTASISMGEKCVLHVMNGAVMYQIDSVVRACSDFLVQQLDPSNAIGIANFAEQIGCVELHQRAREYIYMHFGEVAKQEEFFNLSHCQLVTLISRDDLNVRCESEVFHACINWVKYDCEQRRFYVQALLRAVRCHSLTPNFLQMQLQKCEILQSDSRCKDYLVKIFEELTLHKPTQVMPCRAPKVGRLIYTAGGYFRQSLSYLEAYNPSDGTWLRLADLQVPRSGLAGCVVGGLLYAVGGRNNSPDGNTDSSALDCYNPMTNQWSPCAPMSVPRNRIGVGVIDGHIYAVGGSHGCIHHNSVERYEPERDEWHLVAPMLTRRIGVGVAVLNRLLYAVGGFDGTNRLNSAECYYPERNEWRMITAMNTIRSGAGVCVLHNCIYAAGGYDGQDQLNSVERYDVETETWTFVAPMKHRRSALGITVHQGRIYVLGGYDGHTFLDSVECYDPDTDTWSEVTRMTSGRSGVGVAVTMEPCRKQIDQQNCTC
Chain of Glyceraldehyde-3-phosphate dehydrogenase (P04406 whole entry): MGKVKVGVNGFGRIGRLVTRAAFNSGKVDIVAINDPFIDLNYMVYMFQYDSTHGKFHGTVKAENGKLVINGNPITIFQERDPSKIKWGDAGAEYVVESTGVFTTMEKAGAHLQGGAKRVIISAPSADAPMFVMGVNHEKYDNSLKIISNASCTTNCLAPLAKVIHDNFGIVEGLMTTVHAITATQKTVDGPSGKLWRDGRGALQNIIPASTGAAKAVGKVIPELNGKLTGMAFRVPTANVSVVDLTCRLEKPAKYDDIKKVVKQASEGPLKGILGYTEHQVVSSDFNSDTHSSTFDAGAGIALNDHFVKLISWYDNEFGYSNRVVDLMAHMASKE
Chain of Serine/threonine-protein phosphatase (B9W6M3 whole entry): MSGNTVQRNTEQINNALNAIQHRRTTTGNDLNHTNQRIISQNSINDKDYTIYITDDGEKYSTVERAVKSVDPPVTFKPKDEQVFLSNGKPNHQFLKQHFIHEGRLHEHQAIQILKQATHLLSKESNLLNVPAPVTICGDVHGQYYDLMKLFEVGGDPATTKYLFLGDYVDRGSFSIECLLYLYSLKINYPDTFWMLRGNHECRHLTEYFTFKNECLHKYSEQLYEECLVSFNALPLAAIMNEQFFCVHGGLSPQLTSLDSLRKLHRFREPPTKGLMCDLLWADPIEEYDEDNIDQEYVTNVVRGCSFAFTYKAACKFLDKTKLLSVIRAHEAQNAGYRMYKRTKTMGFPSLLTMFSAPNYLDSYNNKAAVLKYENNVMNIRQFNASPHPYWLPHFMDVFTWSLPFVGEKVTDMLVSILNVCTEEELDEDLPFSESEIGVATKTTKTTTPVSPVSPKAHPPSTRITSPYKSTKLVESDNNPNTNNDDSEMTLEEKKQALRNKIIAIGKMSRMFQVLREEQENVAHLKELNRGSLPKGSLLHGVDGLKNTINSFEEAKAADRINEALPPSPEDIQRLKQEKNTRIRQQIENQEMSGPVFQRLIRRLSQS
Chain of ORF 73 (O40947 whole entry): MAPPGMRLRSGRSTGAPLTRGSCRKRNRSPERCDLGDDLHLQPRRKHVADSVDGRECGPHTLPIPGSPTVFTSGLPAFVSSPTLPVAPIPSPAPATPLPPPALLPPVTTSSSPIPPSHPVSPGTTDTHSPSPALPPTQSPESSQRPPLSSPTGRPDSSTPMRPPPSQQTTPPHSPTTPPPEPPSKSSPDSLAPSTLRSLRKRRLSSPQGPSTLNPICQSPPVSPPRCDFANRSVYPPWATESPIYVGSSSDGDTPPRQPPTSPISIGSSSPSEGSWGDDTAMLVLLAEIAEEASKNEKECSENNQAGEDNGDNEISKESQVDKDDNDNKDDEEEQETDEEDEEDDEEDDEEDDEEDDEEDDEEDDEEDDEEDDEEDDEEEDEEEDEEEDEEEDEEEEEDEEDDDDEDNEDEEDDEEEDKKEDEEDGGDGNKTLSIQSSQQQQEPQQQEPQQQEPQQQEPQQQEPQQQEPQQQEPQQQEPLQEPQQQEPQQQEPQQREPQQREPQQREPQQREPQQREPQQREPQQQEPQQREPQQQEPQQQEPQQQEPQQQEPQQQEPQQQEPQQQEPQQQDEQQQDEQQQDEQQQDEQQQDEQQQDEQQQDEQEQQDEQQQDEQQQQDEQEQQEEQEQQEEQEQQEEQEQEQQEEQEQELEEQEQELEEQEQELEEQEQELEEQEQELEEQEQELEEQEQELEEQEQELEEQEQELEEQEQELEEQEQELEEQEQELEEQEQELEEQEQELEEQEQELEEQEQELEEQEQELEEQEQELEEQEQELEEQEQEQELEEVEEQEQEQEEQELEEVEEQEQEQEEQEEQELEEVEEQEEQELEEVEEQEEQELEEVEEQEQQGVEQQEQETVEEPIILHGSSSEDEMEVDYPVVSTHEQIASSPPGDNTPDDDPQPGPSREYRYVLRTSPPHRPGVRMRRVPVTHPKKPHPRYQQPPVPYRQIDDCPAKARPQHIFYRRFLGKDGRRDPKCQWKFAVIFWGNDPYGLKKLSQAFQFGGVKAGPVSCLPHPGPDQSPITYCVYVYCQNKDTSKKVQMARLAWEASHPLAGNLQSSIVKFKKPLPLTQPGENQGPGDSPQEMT

## CN1/C(=C\C(=O)COc2ccc3c(c2)OCO3)C(C)(C)c2ccccc21
[1]
  AC50: 4.1 µM (active)
[2]
  IC50: 1.48 µM (active)
[3]
  IC50: 0.768 µM (active)
[4]
  EC50: > 60 µM (not active)
[5]
  EC50: 2.75 µM (active)
[6]
  AC50: 23.4 µM (active)

## O=C(CNc1cccc([N+](=O)[O-])c1)N/N=C/c1ccc([N+](=O)[O-])o1
A-375
  AC50: 41.8 µM (active)
Cells [7]
  IC50: 5.42 µM (active)
[8]
  CC50: 14.1 µM (active)
Cells [9]
  EC50: 0.055 µM (active)
[10]
  EC50: 0.0205 µM (active)
[4]
  EC50: > 60 µM (not active)
[5]
  EC50: < 0.1 µM (active)
[11]
  AC50: 35.6 µM (active)
[12]
  CC50: 10.1 µM (active)
Trypanosoma cruzi
  AC50: 0.061 µM (active)
[13]
  AC50: 8.63 µM (active)
[14]
  CC50: 11.6 µM (active)

## CCOc1ccc(S(=O)(=O)Nc2cc(Cl)ccc2O)cc1
Escherichia coli
  AC50: 53.7 µM (active)

## O=C(NC12CC3CC(CC(C3)C1)C2)N(Cc1ccccc1)Cc1ccncc1
HEK293 [15]
  EC50: > 59.6 µM (inactive)
HEK293 [16]
  EC50: > 59.6 µM (inactive)

## O=C(N/N=C/c1cc(Cl)cc([N+](=O)[O-])c1O)NC12CC3CC(CC(C3)C1)C2
[1]
  AC50: 5.03 µM (active)
[17]
  EC50: 6.87 µM (active)
[18]
  IC50: 40 µM (active)

## COc1ccc2cc3cc(C(=O)NCCN4CCN(Cc5ccccc5)CC4)oc3nc2c1
[19]
  AC50: 1.51 µM (active)

## Cc1cc(Nc2ccccc2)nc(NCc2ccccc2)n1
[20]
  IC50: > 20 µM (inactive)
[21]
  AC50: 2.54 µM (active)
[22]
  AC50: 20.5 µM (active)
[23]
  AC50: 1.04 µM (active)
[2]
  IC50: 0.927 µM (active)
[24]
  EC50: > 150 µM (inactive)
[25]
  EC50: 0.783 µM (active)
[3]
  IC50: 0.571 µM (active)
[26]
  EC50: > 150 µM (inactive)
[27]
  IC50: 2.05 µM (active)
[28]
  EC50: > 180 µM (inactive)

## CCCCCCCCC#CC#CCCCC(=O)O
[29]
  IC50: > 100 µM (inactive)
[30]
  IC50: 96.2 µM (not active)
[31]
  IC50: > 100 µM (inactive)
[32]
  IC50: > 100 µM (not active)

## CCc1ccc[n+](-c2[n-]c(=O)sc2C=NNC(=S)Nc2ccccc2)c1
Keap1/Nrf2
  AC50: 13.6 µM (active)
ORF 73
  AC50: 10.1 µM (active)

## Cc1nn(-c2cccc(C(F)(F)F)c2)c(Cl)c1/C=N/Nc1cccc(C(=O)O)c1
[33]
  AC50: > 52 µM (inactive)
[34]
  IC50: 11.4 µM (not active)
